Measured values reported in patent US12077503B2, “Substituted cyclic amides and their use as herbicides” (FMC CORPORATION, priority 2015, dated 2024).

Legend:
Format in all cases: in vivo
[1] = system: corn (Zea mays); test: Test G Pre-Emergence Protocol; conditions: Zea mays, pre-emergence, 312 h, evaluated after 13 days
Outline: (§1)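 Visual injury (0–100) at day 13 after a single pre-emergence spray. Rates: 15.625, 62.5, 250 g/ha in acetone–water 50:50 with 0.5% Tween 20. Growth conditions: 24/16° C, 14 h light, 65% humidity.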

[2] = system: velvetleaf (Abutilon theophrasti); test: Test G Pre-Emergence Protocol; conditions: Abutilon theophrasti, pre-emergence, 312 h, evaluated after 13 days
Outline: as §1

[3] = system: giant foxtail (Setaria faberi); test: Test G Pre-Emergence Protocol; conditions: Setaria faberi, pre-emergence, 312 h, evaluated after 13 days
Outline: as §1

[4] = system: barnyardgrass (Echinochloa crus-galli); test: Test G Pre-Emergence Protocol; conditions: Echinochloa crus-galli, pre-emergence, 312 h, evaluated after 13 days
Outline: as §1

[5] = system: ivy-leaved morning glory (Ipomoea hederacea); test: Test G Pre-Emergence Protocol; conditions: Ipomoea, pre-emergence, 312 h, evaluated after 13 days
Outline: as §1

[6] = system: redroot pigweed (Amaranthus retroflexus); test: Test G Pre-Emergence Protocol; conditions: Amaranthus retroflexus, pre-emergence, 312 h, evaluated after 13 days
Outline: as §1

[7] = system: corn (Zea mays); test: Test G Post-Emergence Protocol; conditions: Zea mays, post-emergence, 312 h, read-out: Corn damage rating
Outline: (§2)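 Damage was rated 13 days after treatment from 0 (none) to 100 (plant killed). Compound was applied as a spray at 15.625, 62.5 or 250 g/ha in 50:50 acetone/water containing 0.5% Tween 20, onto 8-day-old potted plants kept in a glasshouse (24/16 °C, 14 h light, 65% humidity).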

[8] = system: velvetleaf (Abutilon theophrasti); test: Test G Post-Emergence Protocol; conditions: Abutilon theophrasti, post-emergence, 312 h, read-out: Velvetleaf damage rating
Outline: as §2

[9] = system: giant foxtail (Setaria faberi); test: Test G Post-Emergence Protocol; conditions: Setaria faberi, post-emergence, 312 h, read-out: Foxtail, Giant damage rating
Outline: as §2

[10] = system: barnyardgrass (Echinochloa crus-galli); test: Test G Post-Emergence Protocol; conditions: Echinochloa crus-galli, post-emergence, 312 h, read-out: Barnyardgrass damage rating
Outline: as §2

[11] = system: ivy-leaved morning glory (Ipomoea hederacea); test: Test G Post-Emergence Protocol; conditions: Ipomoea, post-emergence, 312 h, read-out: Morningglory, Ivy-leaved damage rating
Outline: as §2

[12] = system: redroot pigweed (Amaranthus retroflexus); test: Test G Post-Emergence Protocol; conditions: Amaranthus retroflexus, post-emergence, 312 h, read-out: Pigweed, Redroot damage rating
Outline: as §2

[13] = 15.625 g ai/ha, evaluated after 13 days (100=total damage to plant; 0=no damage to plant)
[14] = 62.5 g ai/ha, evaluated after 13 days, 100=total damage to plant, 0=no damage to plant
[15] = 250 g ai/ha, evaluated after 13 days, 100=total damage to plant, 0=no damage to plant

With `CCOc1ccc(C2CN(C)C(=O)C2C(=O)Nc2cccc(F)c2F)cc1OCC` (stereo not drawn) [Compound 1716] the plant injury at 15.625 g/ha ([1]; 15.625 g ai/ha, read-out: Corn damage rating (100=total damage to plant; 0=no damage to plant)) was 0%, the plant injury at 62.5 g/ha ([1]; 62.5 g ai/ha, 100=total damage to plant, 0=no damage to plant, read-out: Corn damage rating) was 0% and the plant injury at 250 g/ha ([1]; 250 g ai/ha, read-out: Corn damage rating (100=total damage to plant; 0=no damage to plant)) was 60%. It also gave a pest or weed control at 15.625 g/ha ([2]; 15.625 g ai/ha, read-out: Velvetleaf damage rating (100=total damage to plant; 0=no damage to plant)) of 0%, a pest or weed control at 62.5 g/ha ([2]; 62.5 g ai/ha, 100=total damage to plant, 0=no damage to plant, read-out: Velvetleaf damage rating) of 10% and a pest or weed control at 250 g/ha ([2]; 250 g ai/ha, read-out: Velvetleaf damage rating (100=total damage to plant; 0=no damage to plant)) of 10%. The pest or weed control at 15.625 g/ha ([3]; 15.625 g ai/ha, read-out: Foxtail, Giant damage rating (100=total damage to plant; 0=no damage to plant)) was 30%, the pest or weed control at 62.5 g/ha ([3]; 62.5 g ai/ha, 100=total damage to plant, 0=no damage to plant, read-out: Foxtail, Giant damage rating) was 90% and the pest or weed control at 250 g/ha ([3]; 250 g ai/ha, read-out: Foxtail, Giant damage rating (100=total damage to plant; 0=no damage to plant)) was 90%. It also gave a pest or weed control at 15.625 g/ha ([4]; 15.625 g ai/ha, read-out: Barnyardgrass damage rating (100=total damage to plant; 0=no damage to plant)) of 0%, a pest or weed control at 62.5 g/ha ([4]; 62.5 g ai/ha, 100=total damage to plant, 0=no damage to plant, read-out: Barnyardgrass damage rating) of 80% and a pest or weed control at 250 g/ha ([4]; 250 g ai/ha, read-out: Barnyardgrass damage rating (100=total damage to plant; 0=no damage to plant)) of 90%. For the same compound, the pest or weed control at 15.625 g/ha ([5]; 15.625 g ai/ha, read-out: Morningglory, Ivy-leaved damage rating (100=total damage to plant; 0=no damage to plant)) was 0%, the pest or weed control at 62.5 g/ha ([5]; 62.5 g ai/ha, 100=total damage to plant, 0=no damage to plant, read-out: Morningglory, Ivy-leaved damage rating) was 0% and the pest or weed control at 250 g/ha ([5]; 250 g ai/ha, read-out: Morningglory, Ivy-leaved damage rating (100=total damage to plant; 0=no damage to plant)) was 0%. The pest or weed control at 15.625 g/ha ([6]; 15.625 g ai/ha, read-out: Pigweed, Redroot damage rating (100=total damage to plant; 0=no damage to plant)) was 0%, the pest or weed control at 62.5 g/ha ([6]; 62.5 g ai/ha, 100=total damage to plant, 0=no damage to plant, read-out: Pigweed, Redroot damage rating) was 10% and the pest or weed control at 250 g/ha ([6]; 250 g ai/ha, read-out: Pigweed, Redroot damage rating (100=total damage to plant; 0=no damage to plant)) was 10%. The plant injury at 15.625 g/ha [7, 13] was 0%, the plant injury at 62.5 g/ha [7, 14] was 10% and the plant injury at 250 g/ha [7, 15] was 60%. The pest or weed control at 15.625 g/ha [8, 13] was 0%, the pest or weed control at 62.5 g/ha [8, 14] was 0% and the pest or weed control at 250 g/ha [8, 15] was 0%. It also gave a pest or weed control at 15.625 g/ha [9, 13] of 40%, a pest or weed control at 62.5 g/ha [9, 14] of 70% and a pest or weed control at 250 g/ha [9, 15] of 80%. It also gave a pest or weed control at 15.625 g/ha [10, 13] of 0%, a pest or weed control at 62.5 g/ha [10, 14] of 60% and a pest or weed control at 250 g/ha [10, 15] of 80%. The pest or weed control at 15.625 g/ha [11, 13] was 0%, the pest or weed control at 62.5 g/ha [11, 14] was 0% and the pest or weed control at 250 g/ha [11, 15] was 10%. It also gave a pest or weed control at 15.625 g/ha [12, 13] of 0%, a pest or weed control at 62.5 g/ha [12, 14] of 0% and a pest or weed control at 250 g/ha [12, 15] of 0%.
